Data set [1] has as its target T1, human H4 receptor (Homo sapiens, UniProt Q9H3N8).
T1 construct: expressed in transfected cells
Put plainly: [3H]Histamine binding assay on membranes of CHO cells stably expressing human H4 receptor. The protocol:
CHO cells stably expressing human H4 receptor were grown until sub-confluence and centrifuged at 300 g 15 minutes at 4° C. Pellets were resuspended in buffer I Tris-HCl 50 mM, MgCl2 10 mM, NaCl 140 mM, pH=7.4 supplemented by a 1/50 dilution of a mix of protease inhibitors. The obtained suspension is stirred gently and submitted to a […] exerted through a syringe. The cell lysate is then centrifuged at 300 g 15 minutes at 4° C. in order to eliminate nucleus and cell scraps. The obtained supernatant was then centrifuged at 48000 g for 30 minutes at 4° C. The final pellet is resuspended in buffer I with a potter homogenizer. Aliquots were frozen in liquid nitrogen and stored until use at −80° C. Protein content is measured by the Bradford method.
Defreezed membranes were diluted at a final concentration of 20 μg/180 μL/well in a binding buffer containing 50 mM Tris/HCl, 0.5 mM EDTA, pH=7.4 and distributed in 96 well polystyrene microplate. [^3H] […] Non specific binding was estimated in the presence of 10 μM BP1.2404 (JNJ 7777120). The reaction was terminated by filtration through GF/B filters pre-soaked 2 hours at 4° C. in 1% polyethyleneimine. Filters were rinsed 3 times with 250 μl of ice cold incubation binding buffer.
The filter-bound radioactivity was measured in a liquid scintillation counter Microbeta TRILUX® with 50 μl of scintillation fluid.
The hH4 binding investigated by use of [^3H]

For data set [2], the target named is T1, human H4 receptor. The data set is described as follows: GTPγ[35S] binding assay on membranes of SH-SY5Y cells stably expressing human H4 receptor. The format is biochemical. The protocol: SH-SY5Y cells stably expressing human H4 receptor are grown until sub-confluence and centrifuged at 300 g 15 minutes at 4° C. Pellets are resuspended in buffer I Tris-HCl 50 mM, MgCl2 10 mM, NaCl 140 mM, pH=7.4 supplemented by Leupeptin 10 μg/mL, Phenyl Methyl Sulphonyl Fluoride (PMSF) 0.1 mM, Aprotinin 2 μg/mL and Pepstatin 2 μM (or a 1/50 dilution of a mix of protease inhibitors). The obtained suspension is stirred gently and submitted to a […] exerted through a syringe. The cell lysate is then centrifuged at 300 g 15 minutes at 4° C. in order to eliminate nucleus and cell scraps. The obtained supernatant is then centrifuged at 48000 g for 30 minutes at 4° C. The final pellet is resuspended in buffer I with a potter homogenizer. Aliquots are frozen in liquid nitrogen and stored until use at −80° C. Protein content is measured by the Bradford method.
Defreezed membranes are diluted at a final concentration of 5 μg/180 μL/well in buffer I supplemented by GDP 10 μM and distributed in 96 well polystyrene microplate. GTPγ [^35S] labelled ligand (0.2-0.3 nM) is added for additional 30 minutes. After transfer in a Millipore GF/C HTS® microplate, the filtration of the rectional mix is followed by a three times 250 μl wash to stop the reaction.
The filter-bound radioactivity is measured in a liquid scintillation counter Microbeta TRILUX® with 50 μl of scintillation fluid.
Results are expressed with IC50 and Ki values.

Counter-ions that a name gives are not always drawn.

T1 sequence (Q9H3N8 whole entry): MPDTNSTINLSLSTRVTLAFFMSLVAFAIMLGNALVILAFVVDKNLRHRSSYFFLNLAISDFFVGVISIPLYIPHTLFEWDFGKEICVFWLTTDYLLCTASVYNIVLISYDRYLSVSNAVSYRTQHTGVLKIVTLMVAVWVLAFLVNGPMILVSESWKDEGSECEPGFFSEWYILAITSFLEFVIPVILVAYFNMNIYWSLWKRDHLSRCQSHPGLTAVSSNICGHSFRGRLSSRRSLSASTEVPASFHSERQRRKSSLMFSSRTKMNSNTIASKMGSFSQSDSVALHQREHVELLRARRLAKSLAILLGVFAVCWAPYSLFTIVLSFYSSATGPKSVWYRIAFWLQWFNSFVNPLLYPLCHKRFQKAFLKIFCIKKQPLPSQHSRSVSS

One may read the melting point as the temperature of the solid-liquid transition. What is called Ki is the equilibrium dissociation constant of an inhibitor or competing ligand from its target. Lower therefore signals a stronger hold on the target. In turn, `Cc1ccnc(C(OC2CCN(C)CC2)c2cc(OC(F)(F)F)ccc2F)c1.O=C(O)C(=O)O.O=C(O)C(=O)O` (stereo not shown) [Example 8, 2-[(2-Fluoro-5-trifluoromethoxyphenyl)(1-methylpiperidin-4-yloxy)methyl]-4-methylpyridine, dioxalate] showed a melting point of 43 °C. The molecule also came in with a Ki at human H4 receptor [1] below 300 nM.

`COc1cccc(C(OC2CCN(C)CC2)c2ccc(Cl)cn2)c1.O=C(O)C(=O)O` (stereo not shown) [Example 12, 5-Chloro-2-[(3-methoxyphenyl)(1-methylpiperidin-4-yloxy)methyl]pyridine, oxalate] returned a melting point of 175 °C. Besides, the Ki on human H4 receptor [1] was below 1000 nM. The term IC50 denotes the midpoint of a concentration-inhibition curve. A high value points to lower potency. With `Cc1ccnc(C(OC2CCN(C)CC2)c2ccc(C)cc2F)c1.O=C(O)C(=O)O.O=C(O)C(=O)O` (stereo not shown) [Example 7, 2-[(2-Fluoro-4-methylphenyl)(1-methylpiperidin-4-yloxy)methyl]-4-methylpyridine, dioxalate], the melting point is 52 °C. On human H4 receptor [2], the IC50 is below 300 nM. The same molecule displayed a Ki at human H4 receptor [1] below 300 nM. In the case of `Cc1ccc(C(OC2CCN(C)CC2)c2ccc(Cl)cn2)c(O)c1F` (stereo not shown) [Example 22, 6-[(5-Chloropyridin-2-yl)(1-methylpiperidin-4-yloxy)methyl]-2-fluoro-3-methylphenol], the melting point was 67 °C. For the same molecule, the Ki at human H4 receptor [1] is below 30 nM. The corresponding values for `CN1CCC(OC(c2ccc(F)cn2)c2ccc(F)c(F)c2O)CC1` (stereo not shown) [Example 15, 2,3-Difluoro-6-[(5-fluoropyridin-2-yl)(1-methylpiperidin-4-yloxy)methyl]phenol] are 73 °C and below 1000 nM. In turn, `Cc1ccc(C(OC2CCN(C)CC2)c2ccc(F)cn2)c(O)c1F` (stereo not shown) [Example 21, 2-Fluoro-6-[(5-fluoropyridin-2-yl)(1-methylpiperidin-4-yloxy)methyl]-3-methylphenol] displayed a melting point of 62 °C. For the same molecule, on human H4 receptor [1], the Ki is below 300 nM.

In turn, `Cc1ccc(C(OC2CCN(C)CC2)c2cccc(I)c2)cc1.O=C(O)C(=O)O` (stereo not shown) [Example 27, 4-[(3-Iodophenyl)-p-tolylmethoxy]-1-methylpiperidine, oxalate] came in with a melting point of 60 °C. Besides, the Ki on human H4 receptor [1] is below 1000 nM. The like results for `Cc1ccc(C(OC2CCN(C)CC2)c2cc(F)ccn2)c(O)c1F` (stereo not shown) [Example 26, 2-Fluoro-6-[(4-fluoropyridin-2-yl)(1-methylpiperidin-4-yloxy)methyl]-3-methylphenol] were, in that order, 64 °C and below 300 nM. For the molecule `CN1CCC(OC(c2ccccn2)c2ccccc2O)CC1` (stereo not shown) [Example 19, 2-[(1-Methylpiperidin-4-yloxy)pyridin-2-ylmethyl]phenol, oxalate], the Ki on human H4 receptor [1] is below 300 nM. On human H4 receptor [2], `CN1CCC(OC(c2ccc(Cl)cc2)c2cccc(C#CCCCCN)c2)CC1` (stereo not shown) [Example 36, 6-{3-[(4-Chlorophenyl)(1-methylpiperidin-4-yloxy)methyl]phenyl}hex-5-ynylamine, dioxalate] returned an IC50 below 30 nM. On human H4 receptor [1], this molecule gave a Ki below 30 nM. In turn, `CN1CCC(OC(c2cccc(I)c2)c2ccc(Cl)cn2)CC1.O=C(O)C(=O)O` (stereo not shown) [Example 13, 5-Chloro-2-[(3-iodophenyl)(1-methylpiperidin-4-yloxy)methyl]pyridine, oxalate] yielded a melting point of 130 °C. At human H4 receptor [1], the Ki is below 300 nM. The like results for `Cc1ccc(C(OC2CCN(C)CC2)c2ccc(Cl)cn2)c(O)c1.O=C(O)C(=O)O` (stereo not shown) [Example 25, 2-[(5-Chloropyridin-2-yl)(1-methylpiperidin-4-yloxy)methyl]-5-methylphenol, oxalate] were, in that order, 77 °C and below 30 nM. The corresponding values for `CN1CCC(OC(c2ccc(F)cn2)c2ccc(F)cc2O)CC1.O=C(O)C(=O)O` (stereo not shown) [Example 20, 5-Fluoro-2-[(5-fluoropyridin-2-yl)(1-methylpiperidin-4-yloxy)methyl]phenol, oxalate] are 105 °C and below 300 nM. The molecule `Cc1ccc(C(OC2CCN(C)CC2)c2cc(C(F)(F)F)ccn2)c(F)c1.O=C(O)C(=O)O` (stereo not shown) [Example 14, 2-[(2-Fluoro-4-methylphenyl)(1-methylpiperidin-4-yloxy)methyl]-4-trifluoromethylpyridine, oxalate] showed a melting point of 104 °C. The molecule further registered a Ki on human H4 receptor [1] below 300 nM.

`Cc1ccc(C(OC2CCN(C)CC2)c2ccccn2)c(F)c1.O=C(O)C(=O)O.O=C(O)C(=O)O` (stereo not shown) [Example 3, 2-[(2-Fluoro-4-methylphenyl)(1-methylpiperidin-4-yloxy)methyl]pyridine, dioxalate] returned a melting point of 59 °C. The Ki on human H4 receptor [1] was below 300 nM. Turning to `CN1CCC(OC(c2ccc(Cl)cc2)c2ccc(Cl)cn2)CC1.O=C(O)C(=O)O` (stereo not shown) [Example 9, 5-Chloro-2-[(4-chlorophenyl)(1-methylpiperidin-4-yloxy)methyl]pyridine, oxalate], the melting point came to 190 °C. The molecule also came in with a Ki at human H4 receptor [1] below 300 nM.

Turning to `CN1CCC(OC(c2cccc(C#CCCCCN)c2)c2ccccn2)CC1` (stereo not shown) [Example 5, 6-{3-[(1-Methylpiperidin-4-yloxy)pyridin-2-ylmethyl]phenyl}hex-5-ynylamine, oxalate], the IC50 on human H4 receptor [2] was below 300 nM. The same molecule gave a Ki on human H4 receptor [1] below 300 nM. `CN1CCC(OC(c2ccncc2)c2cc(OC(F)(F)F)ccc2F)CC1.O=C(O)C(=O)O.O=C(O)C(=O)O` (stereo not shown) [Example 6, 4-[(2-Fluoro-5-trifluoromethoxyphenyl)(1-methylpiperidin-4-yloxy)methyl]pyridine, dioxalate] gave a melting point of 61 °C. For the same molecule, the Ki at human H4 receptor [1] is below 300 nM. As to `Cc1ccc(C(OC2CCN(C)CC2)c2ccc(Cl)cc2)c(F)c1.O=C(O)C(=O)O` (stereo not shown) [Example 34, 4-[(4-Chlorophenyl)(2-fluoro-4-methylphenyl)methoxy]-1-methylpiperidine, oxalate], the melting point was 165 °C. The molecule further displayed a Ki at human H4 receptor [1] below 300 nM. `Cc1ccc(C(OC2CCN(C)CC2)c2ccc3ccccc3c2)c(F)c1.O=C(O)C(=O)O` (stereo not shown) [Example 29, 4-[(2-Fluoro-4-methylphenyl)naphthalen-2-yl-methoxy]-1-methylpiperidine, oxalate] gave a melting point of 122 °C. Moreover, on human H4 receptor [2], the IC50 is below 1000 nM. The molecule `CN1CCC(OC(c2ccc(F)cn2)c2cc(OC(F)(F)F)ccc2F)CC1.O=C(O)C(=O)O` (stereo not shown) [Example 11, 5-Fluoro-2-[(2-fluoro-5-trifluoromethoxyphenyl)(1-methylpiperidin-4-yloxy)methyl]pyridine, oxalate] returned a melting point of 113 °C. The molecule also had an inhibition constant (Ki) on human H4 receptor [1] below 1000 nM. The like results for `CCOC(=O)NCCCCC#Cc1cccc(C(OC2CCN(C)CC2)c2ccccn2)c1.O=C(O)C(=O)O` (stereo not shown) [Example 17, (6-{3-[(1-Methylpiperidin-4-yloxy)pyridin-2-ylmethyl]phenyl}hex-5-ynyl)carbamic acid ethyl ester, oxalate] were, in that order, 77 °C and below 1000 nM. The corresponding values for `CN1CCC(OC(c2ccc(Cl)cn2)c2ccc(F)c(F)c2O)CC1` (stereo not shown) [Example 16, 6-[(5-Chloropyridin-2-yl)(1-methylpiperidin-4-yloxy)methyl]-2,3-difluorophenol] are 68 °C and below 300 nM. For `Cc1ccc(C(OC2CCN(C)CC2)c2ccc(F)cn2)c(O)c1.O=C(O)C(=O)O` (stereo not shown) [Example 24, 2-[(5-Fluoropyridin-2-yl)(1-methylpiperidin-4-yloxy)methyl]-5-methylphenol, oxalate], the melting point was found to be 77 °C. In addition, on human H4 receptor [1], the Ki was below 30 nM. On to `CN1CCC(OC(c2ccc(Cl)cn2)c2ccc(F)cc2O)CC1` (stereo not shown) [Example 23, 2-[(5-Chloropyridin-2-yl)(1-methylpiperidin-4-yloxy)methyl]-5-fluorophenol], for which the melting point came to 57 °C. Besides, the Ki at human H4 receptor [1] was below 30 nM. With `CN1CCC(OC(c2ccccn2)c2ccccc2O)CC1` (stereo not shown) (as salt: oxalate) [Example 19, 2-[(1-Methylpiperidin-4-yloxy)pyridin-2-ylmethyl]phenol, oxalate], the melting point was 70 °C. For `CN1CCC(OC(c2cccc(I)c2)c2ccccn2)CC1` (stereo not shown) [Example 37, 2-[(3-Iodophenyl)(1-methylpiperidin-4-yloxy)methyl]pyridine, oxalate], the Ki at human H4 receptor [1] is below 1000 nM.
